Consider two substances from US20180002692A1, “Sequence Specific and Organism Specific Antimicrobials and Related Materials and Methods” (priority 2015, published 2018).

“Also recorded” adds a separate entry of the source. Where two headings read alike, the source gives them in different places.

Data set [1] has as its system MG1655 E. coli. Kind of data set: Growth (optical density, lag time) of MG1655. It counts as cell-based. To be noted: 10 μM antisense inhibitor. The procedure: MG1655 E. coli cultures were started from individual colonies from 2% LB and 1.5% agar into M9 media. They were diluted 1:10,000 from overnight culture into fresh M9 with respective treatment and grown at 37° C. with 225 rpm shaking. Clinical strains were started from individual colonies grown on cation adjusted Mueller Hinton Broth with 1.5% agar into liquid CAMHB. These were diluted 1:10,000 into CAMHB medium with respective treatment and grown at 37° C. with 225 rpm shaking. Optical density measurements were taking using a Tecan GENios at 562 nm with a bandwidth of 35 nm. Lag time was calculated using Growth Rates Made Easy (Hall et al. Mol. Biol. Evol. 31(1):232-238). […]

Data set [2] deals with MG1655 E. coli. Kind of data set: Colony forming unit analysis of MG1655. The following applies: 10 μM, 2 hours; listed as A-rpsD. The class given is cell-based. From the text: The effect of α-lexA, α-fnrS, and α-rpsD on cell viability using a colony forming unit analysis was then determine.
Data set [3] has as its system MDR Salmonella typhimurium. Kind of data set: Growth of clinical strain MDR S. typhimurium. The class given is cell-based. The following applies: 10 μM. Here is the method: (§1) MG1655 E. coli cultures were started from individual colonies from 2% LB and 1.5% agar into M9 media. They were diluted 1:10,000 from overnight culture into fresh M9 with respective treatment and grown at 37° C. with 225 rpm shaking. Clinical strains were started from individual colonies grown on cation adjusted Mueller Hinton Broth with 1.5% agar into liquid CAMHB. These were diluted 1:10,000 into CAMHB medium with respective treatment and grown at 37° C. with 225 rpm shaking. Optical density measurements were taking using a Tecan GENios at 562 nm with a bandwidth of 35 nm. Lag time was calculated using Growth Rates Made Easy (Hall et al. Mol. Biol. Evol. 31(1):232-238).
(§2) MDR E. coli was inhibited by four of the six oligomers tested (α-folC, α-ffh, α-lexA, and α-rpsD), extended-spectrum beta-lactamase (ESBL) K. pneumoniae was inhibited by two of the antisense oligomers (α-fnrS and α-rpsD), and New Delhi metallo-β-lactamase (NDM-1) K. pneumoniae was inhibited by one of the oligomers tested (α-rpsD) (FIGS. 15-16).

A further data set has as its system CRE E. coli. Kind of data set: Growth of clinical strain CRE E. coli. It counts as cell-based, Escherichia coli. To be noted: 10 μM. Here is the method: as §1, §2
A further data set has as its system MDR E. coli. Kind of data set: Growth of clinical strain MDR E. coli. It counts as cell-based. The following applies: 10 μM. The procedure: as §1, §2
For the next data set, the system named is ESBL K. pneumoniae. Kind of data set: Growth of clinical strain ESBL K. pneumoniae. The class given is cell-based, Klebsiella pneumoniae. The following applies: 10 μM. The procedure: as §1, §2
The test system of a further data set is NDM-1 K. pneumoniae. Kind of data set: Growth of clinical strain NDM-1 K. pneumoniae. It counts as cell-based, Klebsiella pneumoniae. To be noted: 10 μM. The procedure: as §1, §2
In data set [4] the test system is ampicillin-resistant E. coli. The class given is cell-based. Here is the method: pAKgfp1 plasmid was obtained from Addgene for TEM-1 β-lactamase resistance gene, bla (43). The plasmid was cloned into chemically competent Zymo DH5a E. coli (Expressys). Untransformed Zymo DH5a was used as a control strain for β-lactamase activity assays. Liquid cultures were grown in 2% LB, incubated at 37° C. and shaken at 225 rpm. Solid cultures were grown on 2% LB broth, 1.5% agar at 37° C. Ampicillin sodium salt (Sigma Aldrich) was used for selection at a concentration of 300 μg/mL for MIC and CFU analysis. Optical density measurements were taken using a Tecan GENios at 562 nm with a bandwidth of 35 nm. All bacterial freezer stocks were stored in 40% glycerol at −80° C.

A further data set deals with bla mRNA. Kind of data set: bla mRNA expression by qPCR. The following applies: 5 μM α-TSS, 25 μM α-RBS, 25 μM α-YUNR; absence of ampicillin. It counts as cell-based, E. coli. Here is the method:
Three biological replicates were used for bla expression analysis. Cultures were pretreated overnight in respective PNA and liquid media in the absence of ampicillin and collected for RNA at 16 hr.
50 μL of the respective culture was added to 100 μL of Bacteria RNAprotect (Qiagen) and incubated at room temperature for 5 min. The cells were then pelleted via centrifugation for 3 min at 10,000 rpm, the supernatant removed, and samples were flash frozen in an ethanol dry ice bath and stored at −80° C. Precautions were taken to protect RNA from RNases using RNaseZap (Life Technologies). RNA was extracted from frozen cell pellets using GeneJET RNA purification kit (Thermo Scientific) and 350-600 ng was treated with Turbo DNA-free (Ambion). 50 ng cDNA was synthesized using Maxima Universal First Stand cDNA synthesis kit (Thermo Scientific). 1.5 ng of cDNA was used for qPCR with Maxima SYBR Green qPCR master mix with ROX normalization (Thermo Scientific) using Illumina Eco qPCR system. Transcript levels were analyzed using the ΔCq method with respect to moderately expressed housekeeping gene cysG (43). Transcript levels were further analyzed for the mutant populations using the ΔΔCq method with respect to the no treatment populations.
For orientation: In qPCR the cycle at which signal appears reflects the starting amount.

Data set [5] relates to ampicillin-resistant E. coli. It counts as cell-based. Here is the method: Three biological replicates were selected from colonies and pretreated for 16 hr with respective α-TSS concentration in liquid media. After pretreatment, the cultures were diluted 1:100,000 into liquid media with respective concentration of ampicillin and α-TSS and allowed to grow with shaking at 37° C. for 24 hr. The final OD at 562 nm at 24 hr was used for data analysis.
Data fitting analysis was performed in Origin Pro 6.1. Data was fit to a sigmoidal/decay Boltzman function.
The degree of re-sensitization exerted by α-TSS in presence of varying concentrations of ampicillin above and below the MIC determined for α-TSS was then evaluated.
The source holds these as a separate data set.

Data set [6] relates to ampicillin-resistant E. coli. Kind of data set: Emergence of tolerance to α-TSS/ampicillin combination. It counts as cell-based. To be noted: 35 cultures. Here is the method: Ampicillin-resistant cultures were pretreated overnight with 2.5 μM α-TSS and then subjected to selection pressure of 2.5 μM α-TSS and 300 μg/mL of ampicillin for 24 hours. […] Mutant populations 1 and 2 were diluted and re-grown under selection pressure for another 24 hours.
Changes in expression of a set of key stress response genes was examined to identify the resistance mechanism involved in obtaining resistance to α-TSS. Thirteen representative stress response genes were measured by qPCR (FIG. 5B).

Data set [7] deals with ampicillin-resistant E. coli. Kind of data set: Colony forming unit analysis with α-TSS and ampicillin. The following applies: 1 μM α-TSS (below MIC), 300 μg/mL ampicillin.
Protocol: Cultures were sampled at respective time points and serial dilutions were performed ranging from 10^2-10^10. For ampicillin sensitivity experiment, dilutions were plated on solid media and 300 μg/mL ampicillin sodium salt and grown at 37° C. for 24 hr followed by cell counting. For the other experiments, cultures were serially diluted into PBS and plated onto 2% agar and 1.5% agar. Plates were incubated for 16-24 h at 37° C. and counted for visible colonies.
Overnight cultures of ampicillin-resistant E. coli were pre-treated with different concentrations of α-TSS, followed by treatment with ampicillin.
Where [8] appears, read: 0.5 μM α-TSS (below MIC), 24 hr.

On to “KFFKFFKFFK-O-ttgccattttct (antisense TTGCCATTTTCT; all peptide nucleic acid (PNA); (KFF)3K cell-penetrating peptide joined to the N-terminus through an O-linker) [α-rpsD, 12-mer antisense PNA centered on start codon of rpsD, O-linker to (KFF)3K]”, for which the lag time entry in the data set on MG1655 E. coli [1] is recorded as “significantly increased lag time”. Besides, the “growth of MG1655 E. coli cultures” value with MG1655 E. coli [1] (24 h) is given as “completely inhibited; also recorded: completely prevented cell growth; also recorded: Complete inhibition”. Also, the “colony forming units per milliliter after two hours of treatment” value with MG1655 E. coli [2] is reported as “zero”. Moreover, the “growth inhibition of MDR S. typhimurium” value in data set [3] was “inhibited”. In the data set on CRE E. coli, the “growth inhibition of CRE E. coli” value was “completely prevented growth; also recorded: inhibited”. For the same substance, the “growth inhibition of MDR E. coli” value in the data set with MDR E. coli is recorded as “inhibited”. Further, the “growth inhibition of ESBL K. pneumoniae” value in the data set on ESBL K. pneumoniae is “inhibited”. Moreover, the “growth inhibition of NDM-1 K. pneumoniae” value with NDM-1 K. pneumoniae is on record as “inhibited”.

For the substance “KFFKFFKFFK-O-tactcatactct (antisense TACTCATACTCT; PNA, O-linker to (KFF)3K peptide, chemistry not fully specified) [α-TSS]”, in [4], the “re-sensitization of drug resistant E. coli to ampicillin” value is “re-sensitized drug resistant E. coli to ampicillin; also recorded: re-sensitization of drug resistant E. coli to ampicillin; also recorded: re-sensitize”. For the same substance, in data set [4] (absence of ampicillin), the “growth in absence of ampicillin (toxicity of antisense agent)” value is on record as “non-toxic effect; also recorded: No inhibition”. The “growth of drug-resistant E. coli in presence of ampicillin” value in [4] (antisense oligomer plus 300 μg/mL ampicillin) was “hindered cell growth; also recorded: impact growth; also recorded: significant antibiotic effect”. The “minimum inhibitory concentration (MIC)” value in data set [4] (in presence of 300 μg/mL ampicillin, after overnight pretreatment with antisense agent) was 2.5 µM. Further, the “bla mRNA expression” value with bla mRNA is recorded as “did not affect bla transcript levels; also recorded: did not significantly reduce bla expression”. Further, the “slope of the transition from resistant to sensitive (Boltzman fit)” value in [5] (0.5 μM α-TSS (below MIC)) is −0.0038 ODmLμg^−1. Further, in data set [5] (setting [8]), the “ampicillin concentration up to which growth is unhindered” value turned out to be 250 µg/mL and the “ampicillin concentration with no growth” value turned out to be 550 µg/mL. Moreover, in data set [5] (5 μM α-TSS (above MIC)), the “decrease in ampicillin MIC compared to the no treatment cultures” value was “greater than 20 fold”; the “increase in negative slope compared to below MIC and no treatment” value is “Greater than two fold”; the “slope of the transition from resistant to sensitive (Boltzman fit)” value was −0.010 OD/μg/mL. Moreover, in [5] (5 μM α-TSS (above MIC), 24 hr), the “lowest ampicillin concentration showing a decrease in growth” value was found to be 25 µg/mL. Also, the “shift in ampicillin sensitivity” value in data set [5] (α-TSS at 0.5 μM (below MIC) and 5 μM (above MIC)) is “leftward shift in ampicillin sensitivity”. In data set [6] (2.5 μM α-TSS (MIC)/β-lactam), the “share of independent cultures showing emergence of tolerance” value is “less than 5%”. Further, the “independent cultures showing emergence of tolerance” value in [6] (5 μM α-TSS/ampicillin) was “None”. Also, the “colony forming units over time” value in data set [7] is given as “increased with time”.
